Measured values as given in PubChem BioAssay AID330 (DTP/NCI, 2004).
Toxic doses and inconclusive results are not listed. Square brackets hold non-standard residues; d marks the D form. Peptide text beside a SMILES is read from it. Abu = CC[CH](N)C(=O)O

Tested on: P388 leukemia ip, CD2F1 mice, survival T/C
Assay: NCI In Vivo Anticancer Drug Screen. Data for tumor model P388 Leukemia (intraperitoneal) in CD2F1 (CDF1) mice
Conditions: endpoint: median survival time, higher = longer survival
In short: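 Mice carrying the transplanted tumor received test compound or vehicle. Survival was recorded in each group, and the value is the treated-group measurement divided by that of the vehicle-treated control group.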

[1] = dose: 50.0 mg/kg/injection, schedule: Q01DX009 (ip), vehicle: Klucel (hydroxypropylcellulose) (HPC)
[2] = dose: 100.0 mg/kg/injection, schedule: Q01DX009 (ip), vehicle: Klucel (hydroxypropylcellulose) (HPC)
[3] = dose: 50.0 mg/kg/injection, schedule: Q01DX005 (ip), vehicle: saline with Tween-80
[4] = dose: 100.0 mg/kg/injection, schedule: Q01DX005 (ip), vehicle: saline with Tween-80
[5] = dose: 200.0 mg/kg/injection, schedule: Q01DX005 (ip), vehicle: saline with Tween-80
[6] = dose: 50.0 mg/kg/injection, schedule: Q01DX005 (ip), vehicle: Klucel (hydroxypropylcellulose) (HPC)
[7] = dose: 100.0 mg/kg/injection, schedule: Q01DX005 (ip), vehicle: Klucel (hydroxypropylcellulose) (HPC)
[8] = dose: 200.0 mg/kg/injection, schedule: Q01DX005 (ip), vehicle: Klucel (hydroxypropylcellulose) (HPC)
[9] = dose: 12.5 mg/kg/injection, schedule: Q01DX005 (ip), vehicle: Klucel (hydroxypropylcellulose) (HPC)
[10] = dose: 25.0 mg/kg/injection, schedule: Q01DX005 (ip), vehicle: Klucel (hydroxypropylcellulose) (HPC)
[11] = dose: 50.0 mg/kg/injection, schedule: Q01DX005 (ip), vehicle: distilled water + alcohol
[12] = dose: 100.0 mg/kg/injection, schedule: Q01DX005 (ip), vehicle: distilled water + alcohol
[13] = dose: 200.0 mg/kg/injection, schedule: Q01DX005 (ip), vehicle: distilled water + alcohol
[14] = dose: 200.0 mg/kg/injection, schedule: Q01DX001 (ip), vehicle: saline with Tween-80
[15] = dose: 400.0 mg/kg/injection, schedule: Q01DX001 (ip), vehicle: saline with Tween-80

O=C(O)[C@@H]1[C@H]2C[C@H]3c4[nH]c5ccccc5c4CCN3C[C@@H]2CC[C@@H]1O
T/C (dose: 25.0 mg/kg/injection, schedule: Q01DX009 (ip), vehicle: Klucel (hydroxypropylcellulose) (HPC)): 87 % of control
T/C [1]: 88 % of control
T/C [2]: 100 % of control
T/C (dose: 200.0 mg/kg/injection, schedule: Q01DX009 (ip), vehicle: Klucel (hydroxypropylcellulose) (HPC)): 101 % of control

Cc1ccc2occ(/C=N/NC(N)=S)c(=O)c2c1
T/C [3]: 90 % of control
T/C [4]: 97 % of control

O=C1c2ccccc2C(=O)c2c1c(Cl)cc1c(=O)c3cc(Cl)cc(Cl)c3[nH]c21
T/C [3]: 99 % of control
T/C [4]: 95 % of control
T/C [5]: 92 % of control

O=P(c1ccccc1)(c1ccccc1)c1ccccc1OCc1cccc(COc2ccccc2P(=O)(c2ccccc2)c2ccccc2)n1
T/C [6]: 99 % of control
T/C [7]: 91 % of control
T/C [8]: 97 % of control

CCCNC(=S)N/N=C\C(C)=N\Nc1ccc(Cl)cc1
T/C (dose: 100.0 mg/kg/injection, schedule: Q04DX003 (ip), vehicle: saline): 95 % of control
T/C (dose: 200.0 mg/kg/injection, schedule: Q04DX003 (ip), vehicle: saline): 96 % of control
T/C (dose: 400.0 mg/kg/injection, schedule: Q04DX003 (ip), vehicle: saline): 97 % of control

Cc1ccc(S(=O)(=O)OC2CN(C)CC=C2c2ccccc2)cc1 (stereo unspecified)
T/C [9]: 105 % of control
T/C [10]: 104 % of control
T/C [6]: 99 % of control
T/C [7]: 99 % of control

Cc1ccc(S(=O)c2ccccc2C(O)(C(F)(F)F)C(F)(F)F)cc1 (stereo unspecified)
T/C [6]: 99 % of control
T/C [7]: 99 % of control
T/C [8]: 92 % of control

CCOC(=O)Nc1cc(NC/C(=N/O)c2ccc(Cl)cc2)c([N+](=O)[O-])c(N)n1
T/C (dose: 50.0 mg/kg/injection, schedule: Q01DX001 (ip), vehicle: Klucel (hydroxypropylcellulose) (HPC)): 90 % of control
T/C (dose: 100.0 mg/kg/injection, schedule: Q01DX001 (ip), vehicle: Klucel (hydroxypropylcellulose) (HPC)): 87 % of control

CN(C)c1ncnc2c1ccn2C1OC(CO)C(O)C1O (stereo unspecified)
T/C (dose: 6.25 mg/kg/injection, schedule: Q01DX005 (ip), vehicle: Klucel (hydroxypropylcellulose) (HPC)): 106 % of control
T/C [9]: 109 % of control
T/C [10]: 117 % of control

CCCN(CCC)C(=O)C(c1ccccc1)C1(O)CCCC1 (stereo unspecified)
T/C [6]: 101 % of control
T/C [7]: 102 % of control
T/C [8]: 102 % of control

CC(=O)N1c2ccccc2Sc2ccc3ccc(C(=O)CCl)cc3c21
T/C (dose: 100.0 mg/kg/injection, schedule: Q01DX009 (ip), vehicle: saline with Tween-80): 115 % of control

CC(C)CN1CC(=O)N2CCCC(c3ccccc3)N2C(=O)C1 (stereo unspecified)
T/C [3]: 95 % of control
T/C [4]: 115 % of control
T/C [5]: 112 % of control

COC1=CC(=N/Cl)/C=CC/1=N/Cl
T/C (dose: 6.25 mg/kg/injection, schedule: Q01DX005 (ip), vehicle: saline): 115 % of control
T/C (dose: 12.5 mg/kg/injection, schedule: Q01DX005 (ip), vehicle: saline): 110 % of control
T/C (dose: 25.0 mg/kg/injection, schedule: Q01DX005 (ip), vehicle: saline): 115 % of control

CC1CN=C(c2ccc(NC(=O)c3ccc(C(=O)Nc4ccc(C5=NCC(C)N5)cc4)cc3)cc2)N1 (stereo unspecified)
T/C (dose: 6.25 mg/kg/injection, schedule: Q01DX009 (ip), vehicle: suspension in saline): 184 % of control
T/C (dose: 10.0 mg/kg/injection, schedule: Q01DX010 (ip), vehicle: saline): 209 % of control
T/C (dose: 12.5 mg/kg/injection, schedule: Q01DX009 (ip), vehicle: suspension in saline): 245 % of control
T/C (dose: 15.0 mg/kg/injection, schedule: Q01DX010 (ip), vehicle: saline): 231 % of control
T/C (dose: 22.0 mg/kg/injection, schedule: Q01DX010 (ip), vehicle: saline): 154 % of control
T/C (dose: 25.0 mg/kg/injection, schedule: Q01DX009 (ip), vehicle: suspension in saline): 294 % of control
T/C (dose: 33.0 mg/kg/injection, schedule: Q01DX010 (ip), vehicle: saline): 209 % of control
T/C (dose: 50.0 mg/kg/injection, schedule: Q01DX009 (ip), vehicle: suspension in saline): 166 % of control
T/C (dose: 100.0 mg/kg/injection, schedule: Q01DX009 (ip), vehicle: suspension in saline): 154 % of control

O=C(O)[C@@H]1CCC(c2ccccc2)=N1
T/C [11]: 98 % of control
T/C [12]: 98 % of control
T/C [13]: 98 % of control

CCC(N)C(=O)NC(C(N)=O)C(C)C (stereo unspecified) (H-[Abu]-Val-NH2; configuration not given here)
T/C (dose: 50.0 mg/kg/injection, schedule: Q01DX005 (ip), vehicle: saline): 102 % of control
T/C (dose: 100.0 mg/kg/injection, schedule: Q01DX005 (ip), vehicle: saline): 101 % of control
T/C (dose: 200.0 mg/kg/injection, schedule: Q01DX005 (ip), vehicle: saline): 104 % of control

COC1=C(OC)C(=O)C2=C(OCCCO2)C1=O
T/C (dose: 60.0 mg/kg/injection, schedule: Q01DX001 (ip), vehicle: saline with Tween-80): 105 % of control
T/C [14]: 105 % of control
T/C [15]: 101 % of control

O=C(CCl)N1c2ccccc2Sc2ccccc21
T/C (dose: 12.5 mg/kg/injection, schedule: Q01DX009 (ip), vehicle: water): 105 % of control
T/C (dose: 25.0 mg/kg/injection, schedule: Q01DX009 (ip), vehicle: water): 100 % of control
T/C (dose: 50.0 mg/kg/injection, schedule: Q01DX009 (ip), vehicle: water): 107 % of control
T/C (dose: 100.0 mg/kg/injection, schedule: Q01DX009 (ip), vehicle: water): 111 % of control
T/C (dose: 200.0 mg/kg/injection, schedule: Q01DX009 (ip), vehicle: water): 114 % of control

O=C(c1cc2c(cc1Br)OCO2)N1CCc2cc([N+](=O)[O-])ccc21
T/C (dose: 12.5 mg/kg/injection, schedule: Q01DX009 (ip), vehicle: other): 118 % of control
T/C (dose: 25.0 mg/kg/injection, schedule: Q01DX009 (ip), vehicle: other): 110 % of control
T/C (dose: 50.0 mg/kg/injection, schedule: Q01DX009 (ip), vehicle: other): 105 % of control
T/C (dose: 200.0 mg/kg/injection, schedule: Q01DX009 (ip), vehicle: other): 104 % of control

COc1c(Br)cc(/C=C/[N+](=O)[O-])cc1Br
T/C (dose: 6.25 mg/kg/injection, schedule: Q01DX009 (ip), vehicle: saline with Tween-80): 124 % of control
T/C (dose: 12.5 mg/kg/injection, schedule: Q01DX009 (ip), vehicle: saline with Tween-80): 112 % of control

C[Si](C)(C)N[Si](C)(C)C
T/C [1]: 100 % of control
T/C [2]: 102 % of control

NNC(=O)CCc1c[nH]c2ccccc12
T/C (dose: 50.0 mg/kg/injection, schedule: Q01DX001 (ip), vehicle: saline with Tween-80): 100 % of control
T/C (dose: 100.0 mg/kg/injection, schedule: Q01DX001 (ip), vehicle: saline with Tween-80): 96 % of control
T/C [14]: 111 % of control
T/C [15]: 111 % of control

CC(C)=CCCC1=C2[C@H](O)C=C(C)C[C@@H]2OC1=O
T/C [3]: 100 % of control
T/C [4]: 99 % of control
T/C [5]: 101 % of control

BrCCc1ccccc1Br
T/C [11]: 105 % of control
T/C [12]: 97 % of control
T/C [13]: 97 % of control

CCCCCCCCCCCCCCCC(=O)N(CCCN(C)C)C1CCC(N(CCCN(C)C)C(=O)CCCCCCCCCCCCCCC)CC1 (stereo unspecified)
T/C (dose: 3.13 mg/kg/injection, schedule: Q01DX009 (ip), vehicle: saline sonified): 90 % of control
T/C (dose: 6.25 mg/kg/injection, schedule: Q01DX009 (ip), vehicle: saline sonified): 90 % of control
T/C (dose: 12.5 mg/kg/injection, schedule: Q01DX009 (ip), vehicle: saline sonified): 90 % of control

O=C(CCl)N1CCN(C/C=C/c2ccccc2)CC1
T/C (dose: 60.0 mg/kg/injection, schedule: Q01DX005 (ip), vehicle: saline): 103 % of control
T/C (dose: 120.0 mg/kg/injection, schedule: Q01DX005 (ip), vehicle: saline): 105 % of control

C=C(C(=O)O)S(=O)(=O)O
T/C (dose: 7.5 mg/kg/injection, schedule: Q01DX009 (ip), vehicle: saline with Tween-80): 102 % of control
T/C (dose: 15.0 mg/kg/injection, schedule: Q01DX009 (ip), vehicle: saline with Tween-80): 110 % of control
T/C (dose: 30.0 mg/kg/injection, schedule: Q01DX009 (ip), vehicle: saline with Tween-80): 114 % of control
